Test results taken from US20260158016A1, “HALOPERIDOL DERIVATIVES, PHARMACEUTICAL COMPOSITION COMPRISING SAID DERIVATIVES, AND THERAPEUTIC USES THEREOF” (University of Virginia Patent Foundation, priority 2023, published 2026).
“Also recorded” adds a separate entry of the source.

How the values were obtained:
[1] = tested on: IL-1β secretion by THP-1 cells; test: Inflammasome activation: IL-1β secretion ELISA in LPS and ATP stimulated THP-1 cells; type: cell-based, human; conditions: LPS 125 ng/ml 4 h + ATP 5 mM 30 min, haloperidol pretreatment 1 h, P<0.05 vs vehicle
Description: Human THP-1 cells were stimulated with LPS (125 ng/ml) for 4 h and ATP (5 mM) for 30 min. For all experiments, cells were pretreated with haloperidol (1, 10, or 100 μM) for 1 h and again after the activating stimuli. Secreted human […] in the conditioned cell culture media was detected using an ELISA kit (R&D Systems) according to the manufacturer's instructions. Mean and SEM values are presented.
Haloperidol was tested for inhibition of inflammasome activation. Inflammasome activation was assessed in human THP-1 monocytes by measuring IL-1ß secretion via ELISA.

[2] = tested on: dry AMD; test: Health insurance claims database analysis (PearlDiver Mariner): risk of developing dry AMD by haloperidol exposure; type: in vivo, human; conditions: for Hazard Ratio of developing dry AMD (adjusted hazard ratio): adjusted Cox proportional hazards regression, propensity-score-matched, patients with schizophrenia or Tourette's disorder aged 50 or older
Excerpt: The retrospective study used claims data from the PearlDiver Mariner database, which contains data on health care claims and medication usage for persons in provider networks over the time period 2010 to the second quarter of 2018.
Patients were included in the analysis if they had continuous enrollment in the plan for at least 1 year and were at least 50 years of age at baseline. Individuals with pre-existing dry AMD (≥1 medical claims prior to diagnosis of schizophrenia or Tourette's disorder) were excluded. Disease claims were identified by International Classification of Diseases (ICD)-9-CM and ICD-10-CM codes.
Exposure to haloperidol—the independent variable—was determined by whether patients filled ≥1 outpatient pharmacy prescriptions for generic or brand versions, either in sole form or as a combination medication, as identified by National Drug Codes.
Time to initial diagnosis of dry AMD was the dependent variable.
Analyses were performed with the use of R software, version 4.2.2 (the R project (www.r-project.org)). To analyze the risk of dry AMD between haloperidol users and haloperidol non-users, an adjusted Cox proportional hazards regression analysis was performed, and the hazard ratio was analyzed by the likelihood ratio test. […] This adjusted model included confounding covariates that influence dry AMD risk: age, sex, smoking, body mass index, and Charlson comorbidity index. Kaplan-Meier survival plots were analyzed by log rank test. Statistical tests were 2-sided. P values <0.05 were considered statistically significant.
To evaluate the robustness of the findings and mitigate any possible residual confounding, we estimated propensity-score models including use of haloperidol and no use of haloperidol. The individual propensities for starting haloperidol treatment were estimated with the use of logistic regression. […] We used the R package MatchIt to perform matching in a 1:1 ratio using greedy nearest neighbor matching. In addition, to control for any residual covariate imbalance, we estimated the relative hazard in the propensity score-matched groups using the multivariable Cox models that included the covariates from the multivariable regression analysis employed for the original unmatched group analyses. Statistical tests were two-sided. P values <0.05 were considered statistically significant.
We performed a retrospective, longitudinal cohort analysis in the PearlDiver Mariner database (comprising 150 million Americans from 2010 to 2018) among patients with schizophrenia or Tourette's disorder (the population that would be exposed to haloperidol or other anti-psychotics) aged 50 or older (the population at risk) to assess the risk of dry AMD.

[3] = patients taking haloperidol (Coryell, 1998); cited from earlier work
[4] = tested on: Alu RNA-induced RPE degeneration; test: Alu RNA-induced RPE degeneration in mice (ZO-1 stained RPE flat mounts); type: in vivo, C57BL/6J mice
Description: C57BL/6J mice (The Jackson Laboratory) were anesthetized with ketamine hydrochloride and xylazine. In vitro-transcribed Alu RNA (300 ng in 1 μL) was injected subretinally to induce RPE degeneration (Kaneko, 2011). Various doses of haloperidol (Sigma Aldrich; 1-500 ng in 0.5 μL) or PBS (vehicle) was injected into the vitreous humor 24 h before and immediately after Alu RNA injection. Alternatively, various doses of haloperidol (2-10 μg) were administered via intraperitoneal administration on days 1 through 6 after Alu RNA injection. Animals were euthanized 7 days after Alu RNA injection, and the eyes were enucleated.
RPE health was assessed by immunofluorescence staining of zonula occludens-1 (ZO-1) on RPE flat mounts. Flat mounts were fixed with 2% PFA, stained with rabbit polyclonal antibodies against mouse ZO-1 (Invitrogen), visualized with Alexa Fluor 594 (Invitrogen), and imaged (A1R Nikon). Images were graded as healthy or degenerated in masked fashion as previously described (Kerur, 2018). Proportions of eyes with degeneration were compared using Fisher's exact test.

O=C(CCCN1CCC(O)(c2ccc(Cl)cc2)CC1)c1ccc(F)cc1 [haloperidol]
IL-1β secretion (inflammasome activation) [1]: reduced; also recorded: inhibits | rate of developing dry AMD (Kaplan-Meier survival analysis) ([2]; Mariner database, log-rank test P<0.001): significantly slower rate | Hazard Ratio of developing dry AMD (adjusted hazard ratio) ([2]; Mariner database): 0.747 | Hazard Ratio of developing dry AMD (adjusted hazard ratio) ([2]; Mariner database, listed as Haloperidol): 0.7468 | reduced hazard of developing dry AMD ([2]; haloperidol exposure vs nonexposure, Mariner, adjusted Cox model): 25% | serum concentration [3]: exceeding 20 ng/ml | eyes protected against RPE degeneration ([4]; 5 ng haloperidol intravitreous, 24 h before and immediately after subretinal Alu RNA, assessed day 7): 70% | protection against RPE degeneration ([4]; daily intraperitoneal injection at 2 μg, 5 μg, or 10 μg, days 1 through 6 after Alu RNA): 70-80% | dose with maximal protective effect against RPE degeneration ([4]; intravitreous dose-ranging 1 ng to 500 ng): 5 ng | Alu RNA-induced RPE degeneration (qualitative) ([4]; subretinal Alu RNA, intravitreous or intraperitoneal haloperidol (FIG. 3)): blocked
